According to PMC6255753, “Investigation of the phosphorylation of Bacillus subtilis LTA synthases by the serine/threonine kinase PrkC” (Scientific Reports, 2018):

How the values were obtained:
Assay in all cases: thermal shift titration (SYPRO Orange), Hill fit
Format in all cases: binding
Conditions in all cases: read-out: Apparent KD
[1] = target: T1, eYfnI (YfnI) (Bacillus subtilis, UniProt Q797B3, T297A)
T1 construct: gene ltaS1; extracellular catalytic domain (borders not given), N-terminal 6His tag removed by AcTEV; E. coli Rosetta; pProEX-eYfnI
T1 sequence (Q797B3 215-639 T297A): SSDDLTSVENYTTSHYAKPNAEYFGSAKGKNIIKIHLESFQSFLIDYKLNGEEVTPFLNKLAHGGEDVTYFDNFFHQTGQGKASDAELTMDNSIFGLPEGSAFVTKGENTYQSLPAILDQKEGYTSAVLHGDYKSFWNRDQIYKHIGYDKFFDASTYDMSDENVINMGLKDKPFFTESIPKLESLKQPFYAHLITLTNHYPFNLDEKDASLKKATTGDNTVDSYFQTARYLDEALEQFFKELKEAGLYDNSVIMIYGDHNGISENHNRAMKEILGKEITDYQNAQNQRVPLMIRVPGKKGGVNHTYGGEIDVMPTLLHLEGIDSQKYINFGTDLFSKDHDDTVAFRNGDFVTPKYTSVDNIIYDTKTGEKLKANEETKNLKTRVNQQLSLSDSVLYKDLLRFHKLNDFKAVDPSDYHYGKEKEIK
Description: (§1) thermal shift titration (SYPRO Orange), Hill fit on eYfnI (YfnI)

[2] = target: T2, eYfnI (YfnI) (Bacillus subtilis, UniProt Q797B3)
T2 construct: gene ltaS1; extracellular catalytic domain (borders not given), N-terminal 6His tag removed by AcTEV; E. coli Rosetta; pProEX-eYfnI
T2 sequence (Q797B3 215-639): as the sequence (Q797B3 215-639 T297A) above, with A83T counted along it
Description: as §1

[3] = target: T3, eYfnI (YfnI) (Bacillus subtilis, UniProt Q797B3, T297D)
T3 construct: gene ltaS1; extracellular catalytic domain (borders not given), N-terminal 6His tag removed by AcTEV; E. coli Rosetta; pProEX-eYfnI
T3 sequence (Q797B3 215-639 T297D): as the sequence (Q797B3 215-639 T297A) above, with A83D counted along it
Description: as §1

**Q.** With `O=P(O)(O)OCC(O)CO` (stereo not drawn) [GroP] as the compound, how does the Kd [1] read?
**A.** 8 mM

**Q.** And the Kd [2]?
**A.** 2.9 mM

**Q.** And the Kd [3]?
**A.** 5.4 mM
